Data from ChEMBL document CHEMBL1201862, “PubChem BioAssay data set” (2004).
The source made the active and inactive calls.

Assays:
Escherichia coli = assay: microbe, parasite or virus in culture
Leucine aminopeptidase = molecular target: T1, Leucine aminopeptidase (Plasmodium falciparum 3D7, UniProt Q8IL11); assay: P. falciparum M17LAP inhibitors, primary screen, biochemical, fluorogenic H-Leu-NHMec substrate, 1536-well (AID 1619); type: functional
T1 sequence (Q8IL11 whole entry): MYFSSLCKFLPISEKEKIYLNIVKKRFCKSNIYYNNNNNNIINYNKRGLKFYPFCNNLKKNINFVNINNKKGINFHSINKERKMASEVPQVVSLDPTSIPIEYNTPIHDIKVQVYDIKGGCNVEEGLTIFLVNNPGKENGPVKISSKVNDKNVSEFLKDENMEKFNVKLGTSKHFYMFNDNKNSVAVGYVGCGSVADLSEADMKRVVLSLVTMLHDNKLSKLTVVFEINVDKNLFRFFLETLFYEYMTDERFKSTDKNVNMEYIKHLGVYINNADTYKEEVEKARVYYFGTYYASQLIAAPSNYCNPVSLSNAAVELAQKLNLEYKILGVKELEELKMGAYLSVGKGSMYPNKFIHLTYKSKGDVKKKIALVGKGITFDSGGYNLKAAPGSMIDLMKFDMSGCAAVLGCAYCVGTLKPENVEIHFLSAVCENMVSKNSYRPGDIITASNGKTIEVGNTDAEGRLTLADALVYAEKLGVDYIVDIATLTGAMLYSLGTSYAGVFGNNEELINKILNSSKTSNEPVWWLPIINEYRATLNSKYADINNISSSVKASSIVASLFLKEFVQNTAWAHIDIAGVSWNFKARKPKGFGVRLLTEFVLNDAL

Aminopeptidase N = molecular target: T2, Aminopeptidase N (Plasmodium falciparum FcB1/Columbia, UniProt O96935); assay: malaria alanyl aminopeptidase activity blockers – biochemical, fluorogenic H-Leu-NHMec substrate, 1536-well (AID 1445); parameters: species or system Plasmodium falciparum 3D7, 3D7
T2 sequence (O96935 whole entry): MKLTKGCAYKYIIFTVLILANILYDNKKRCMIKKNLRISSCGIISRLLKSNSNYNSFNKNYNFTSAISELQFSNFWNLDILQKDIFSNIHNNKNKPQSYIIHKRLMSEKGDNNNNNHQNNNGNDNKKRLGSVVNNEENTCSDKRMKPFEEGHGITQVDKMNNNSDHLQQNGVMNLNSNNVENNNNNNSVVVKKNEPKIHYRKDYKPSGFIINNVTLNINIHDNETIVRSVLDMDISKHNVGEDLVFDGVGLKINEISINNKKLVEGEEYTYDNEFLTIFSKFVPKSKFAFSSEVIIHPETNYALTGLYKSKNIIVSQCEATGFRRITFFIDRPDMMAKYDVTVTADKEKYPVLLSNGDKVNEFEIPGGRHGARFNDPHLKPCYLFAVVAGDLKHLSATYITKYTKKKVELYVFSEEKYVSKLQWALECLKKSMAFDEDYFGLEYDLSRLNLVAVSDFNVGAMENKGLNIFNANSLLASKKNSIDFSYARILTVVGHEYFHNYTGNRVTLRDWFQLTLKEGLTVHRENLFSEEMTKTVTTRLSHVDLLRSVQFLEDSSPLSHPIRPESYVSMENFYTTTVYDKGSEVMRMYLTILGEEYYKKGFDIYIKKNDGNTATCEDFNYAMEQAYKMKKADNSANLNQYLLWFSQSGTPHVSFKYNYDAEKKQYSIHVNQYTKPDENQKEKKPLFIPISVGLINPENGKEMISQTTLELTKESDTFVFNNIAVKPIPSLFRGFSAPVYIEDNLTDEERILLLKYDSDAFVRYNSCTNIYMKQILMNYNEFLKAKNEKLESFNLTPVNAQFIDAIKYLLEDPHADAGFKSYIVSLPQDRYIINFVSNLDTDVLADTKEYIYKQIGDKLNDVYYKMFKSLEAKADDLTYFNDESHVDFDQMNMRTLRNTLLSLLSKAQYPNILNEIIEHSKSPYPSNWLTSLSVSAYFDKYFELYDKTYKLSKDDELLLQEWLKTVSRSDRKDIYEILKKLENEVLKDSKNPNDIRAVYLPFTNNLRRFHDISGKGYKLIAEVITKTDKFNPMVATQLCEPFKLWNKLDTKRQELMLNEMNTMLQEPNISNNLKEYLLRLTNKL

[1] = molecular target: Voltage-dependent T-type calcium channel subunit alpha-1H (Homo sapiens, UniProt O95180); type: functional;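 also: channel activity triggered by adding a high calcium stimulation buffer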
Sequence of Voltage-dependent T-type calcium channel subunit alpha-1H (O95180 whole entry): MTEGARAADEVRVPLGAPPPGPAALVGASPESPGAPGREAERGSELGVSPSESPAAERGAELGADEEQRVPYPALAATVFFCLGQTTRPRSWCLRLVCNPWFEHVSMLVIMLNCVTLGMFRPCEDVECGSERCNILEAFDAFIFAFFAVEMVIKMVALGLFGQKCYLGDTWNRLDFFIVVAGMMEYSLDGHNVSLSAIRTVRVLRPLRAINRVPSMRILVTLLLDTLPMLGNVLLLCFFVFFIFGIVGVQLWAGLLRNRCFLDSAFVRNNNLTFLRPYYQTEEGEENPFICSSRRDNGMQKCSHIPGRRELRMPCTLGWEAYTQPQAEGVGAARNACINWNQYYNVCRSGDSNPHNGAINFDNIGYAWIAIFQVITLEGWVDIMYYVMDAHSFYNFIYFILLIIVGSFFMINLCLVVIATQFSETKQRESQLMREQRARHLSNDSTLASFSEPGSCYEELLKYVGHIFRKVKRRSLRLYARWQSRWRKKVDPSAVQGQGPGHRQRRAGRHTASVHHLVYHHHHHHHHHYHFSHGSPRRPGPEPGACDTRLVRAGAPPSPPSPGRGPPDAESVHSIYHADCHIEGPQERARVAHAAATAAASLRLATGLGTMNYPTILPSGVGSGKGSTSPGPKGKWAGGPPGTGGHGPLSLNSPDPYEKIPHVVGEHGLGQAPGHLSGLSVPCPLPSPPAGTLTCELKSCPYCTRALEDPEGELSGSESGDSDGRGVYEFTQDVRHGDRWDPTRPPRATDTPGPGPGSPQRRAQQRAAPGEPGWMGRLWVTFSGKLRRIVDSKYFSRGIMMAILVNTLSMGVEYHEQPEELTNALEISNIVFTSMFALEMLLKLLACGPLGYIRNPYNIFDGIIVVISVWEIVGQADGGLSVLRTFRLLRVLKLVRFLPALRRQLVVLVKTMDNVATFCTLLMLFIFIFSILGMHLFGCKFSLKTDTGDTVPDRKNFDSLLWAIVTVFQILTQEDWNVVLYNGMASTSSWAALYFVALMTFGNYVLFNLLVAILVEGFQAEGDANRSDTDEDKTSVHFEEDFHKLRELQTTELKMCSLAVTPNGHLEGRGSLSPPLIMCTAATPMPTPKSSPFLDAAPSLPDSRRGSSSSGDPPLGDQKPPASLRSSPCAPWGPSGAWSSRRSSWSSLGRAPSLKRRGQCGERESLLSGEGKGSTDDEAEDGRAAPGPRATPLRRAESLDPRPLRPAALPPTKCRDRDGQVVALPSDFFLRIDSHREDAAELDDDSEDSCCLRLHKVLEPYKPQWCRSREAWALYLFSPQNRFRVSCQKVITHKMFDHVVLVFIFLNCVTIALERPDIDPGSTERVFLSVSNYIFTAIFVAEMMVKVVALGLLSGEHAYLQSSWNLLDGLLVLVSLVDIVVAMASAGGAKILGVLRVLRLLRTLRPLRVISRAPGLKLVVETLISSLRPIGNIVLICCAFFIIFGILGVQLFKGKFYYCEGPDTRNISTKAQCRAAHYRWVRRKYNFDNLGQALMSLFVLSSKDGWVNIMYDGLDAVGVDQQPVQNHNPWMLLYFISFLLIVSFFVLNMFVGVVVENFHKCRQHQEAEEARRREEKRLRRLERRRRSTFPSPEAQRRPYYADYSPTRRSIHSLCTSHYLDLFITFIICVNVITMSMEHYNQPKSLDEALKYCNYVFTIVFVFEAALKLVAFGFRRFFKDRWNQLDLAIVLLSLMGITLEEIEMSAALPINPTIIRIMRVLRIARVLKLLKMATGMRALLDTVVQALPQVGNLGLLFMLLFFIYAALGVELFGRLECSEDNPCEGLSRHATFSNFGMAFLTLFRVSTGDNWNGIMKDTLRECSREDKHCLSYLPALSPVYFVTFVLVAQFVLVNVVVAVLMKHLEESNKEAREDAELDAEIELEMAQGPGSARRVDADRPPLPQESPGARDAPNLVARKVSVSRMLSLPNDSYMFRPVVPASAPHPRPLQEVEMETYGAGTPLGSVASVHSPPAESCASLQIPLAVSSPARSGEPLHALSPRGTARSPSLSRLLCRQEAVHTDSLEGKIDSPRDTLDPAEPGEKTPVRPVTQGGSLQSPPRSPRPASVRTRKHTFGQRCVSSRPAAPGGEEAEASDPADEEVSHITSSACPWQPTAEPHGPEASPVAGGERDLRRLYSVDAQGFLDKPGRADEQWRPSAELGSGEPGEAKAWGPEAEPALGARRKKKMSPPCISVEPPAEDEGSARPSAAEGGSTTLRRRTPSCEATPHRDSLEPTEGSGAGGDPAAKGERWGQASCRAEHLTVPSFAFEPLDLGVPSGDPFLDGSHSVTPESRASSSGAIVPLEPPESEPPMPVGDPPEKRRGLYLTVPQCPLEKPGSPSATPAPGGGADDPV

[2] = molecular target: T3, Short transient receptor potential channel 4 (Mus musculus, UniProt Q9QUQ5); assay: block of DAMGO-driven TRPC4 calcium entry – cell-based, HEK293 TRPC4/mu-opioid, Fluo-4 calcium, dose response (AID 434942); type: functional;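 also: potency of inhibitors blocking the TRPC4 calcium response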
T3 sequence (Q9QUQ5 whole entry): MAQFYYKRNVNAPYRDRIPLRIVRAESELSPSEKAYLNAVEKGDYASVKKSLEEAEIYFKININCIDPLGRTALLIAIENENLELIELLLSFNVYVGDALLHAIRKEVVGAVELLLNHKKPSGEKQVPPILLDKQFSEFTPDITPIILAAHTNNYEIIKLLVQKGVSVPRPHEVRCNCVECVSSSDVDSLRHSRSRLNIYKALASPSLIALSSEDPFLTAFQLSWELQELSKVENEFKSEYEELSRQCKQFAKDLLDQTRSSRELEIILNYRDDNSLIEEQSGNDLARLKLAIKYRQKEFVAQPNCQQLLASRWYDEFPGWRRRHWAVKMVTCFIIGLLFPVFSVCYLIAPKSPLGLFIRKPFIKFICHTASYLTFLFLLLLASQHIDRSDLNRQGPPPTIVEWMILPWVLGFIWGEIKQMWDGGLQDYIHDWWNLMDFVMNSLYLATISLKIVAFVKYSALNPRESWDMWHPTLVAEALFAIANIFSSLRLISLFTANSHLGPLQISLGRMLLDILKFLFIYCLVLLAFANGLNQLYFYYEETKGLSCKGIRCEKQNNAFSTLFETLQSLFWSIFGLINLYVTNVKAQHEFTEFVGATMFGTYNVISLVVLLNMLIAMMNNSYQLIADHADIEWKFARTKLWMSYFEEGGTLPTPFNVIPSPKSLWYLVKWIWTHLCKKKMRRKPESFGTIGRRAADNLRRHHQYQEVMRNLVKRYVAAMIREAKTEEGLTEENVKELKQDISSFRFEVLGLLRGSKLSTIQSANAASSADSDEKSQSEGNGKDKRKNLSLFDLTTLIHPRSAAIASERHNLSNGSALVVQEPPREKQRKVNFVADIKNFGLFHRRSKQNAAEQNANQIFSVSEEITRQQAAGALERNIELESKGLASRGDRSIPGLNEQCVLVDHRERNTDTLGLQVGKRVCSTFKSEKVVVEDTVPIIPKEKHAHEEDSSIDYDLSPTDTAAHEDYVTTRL

HEK293 [3] = assay: inhibition of NOD1-driven NF-kB reporter – cell-based, luminescence, uHTS, primary screen (AID 1578); type: functional; settings: Homo sapiens
HEK293 [4] = assay: cells; type: functional, cell-based; settings: Homo sapiens
HEK293 [5] = assay: cells; type: functional, cell-based; settings: Homo sapiens; remark: listed apart in the source
[6] = molecular target: Nucleotide-binding oligomerization domain-containing protein 2 (Homo sapiens, UniProt Q9HC29); assay: inhibition of NOD2-driven NF-kB reporter – cell-based, luminescence, uHTS, HEK293 (AID 1566); type: functional
Sequence of Nucleotide-binding oligomerization domain-containing protein 2 (Q9HC29 whole entry, the tested form may be a part): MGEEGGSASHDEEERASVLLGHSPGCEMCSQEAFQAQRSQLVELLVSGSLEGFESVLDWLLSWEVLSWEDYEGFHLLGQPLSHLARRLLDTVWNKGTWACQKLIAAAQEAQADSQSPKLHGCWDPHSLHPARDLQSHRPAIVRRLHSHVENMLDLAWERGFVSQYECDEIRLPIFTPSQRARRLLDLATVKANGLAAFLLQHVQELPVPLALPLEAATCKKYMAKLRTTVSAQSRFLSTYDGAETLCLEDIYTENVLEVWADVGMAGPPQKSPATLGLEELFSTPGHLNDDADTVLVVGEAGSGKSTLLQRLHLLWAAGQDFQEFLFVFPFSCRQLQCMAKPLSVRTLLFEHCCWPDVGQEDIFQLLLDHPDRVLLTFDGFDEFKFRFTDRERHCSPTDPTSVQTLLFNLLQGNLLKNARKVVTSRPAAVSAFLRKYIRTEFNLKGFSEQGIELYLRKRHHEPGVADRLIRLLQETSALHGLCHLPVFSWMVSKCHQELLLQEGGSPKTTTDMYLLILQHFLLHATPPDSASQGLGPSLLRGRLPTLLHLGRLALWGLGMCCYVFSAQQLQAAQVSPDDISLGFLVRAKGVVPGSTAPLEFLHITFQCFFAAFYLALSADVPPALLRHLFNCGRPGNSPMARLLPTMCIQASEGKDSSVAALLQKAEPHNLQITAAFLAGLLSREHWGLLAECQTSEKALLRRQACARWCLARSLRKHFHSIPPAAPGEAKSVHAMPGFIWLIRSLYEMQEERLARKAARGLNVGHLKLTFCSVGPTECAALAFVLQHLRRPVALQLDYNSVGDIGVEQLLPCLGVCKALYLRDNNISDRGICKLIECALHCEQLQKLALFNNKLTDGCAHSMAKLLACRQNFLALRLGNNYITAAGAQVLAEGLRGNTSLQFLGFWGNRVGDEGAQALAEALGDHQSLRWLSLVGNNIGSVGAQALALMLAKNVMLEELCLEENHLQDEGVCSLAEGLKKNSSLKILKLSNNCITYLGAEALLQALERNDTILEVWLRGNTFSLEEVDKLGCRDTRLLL

HEK293 [7] = assay: NOD2 signaling inhibitors in MDP-stimulated cells, cell-based, uHTS, luminescence (AID 2001); type: functional; settings: Homo sapiens
HEK293 [8] = assay: cells; type: functional, cell-based; settings: Homo sapiens; remark: listed apart in the source
[9] = HEK-293T viability loss after treatment – luminescence, T-cell screen hits, cytotoxicity control for TCR NF-kB inhibitor project, dose response (AID 489026); type: functional, cell-based;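 also: cells exposed to compound about 14 hours before the viability readout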
INS1 = assay: INS-1E survival protection against cytokine death – cell-based, luminescence, retest, dose response (AID 449756); type: functional; settings: Rattus norvegicus;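 also: cell death triggered by IL-1 beta plus TNF-alpha plus IFN-gamma mixture; protective hits raise ATP signal compared with cytokine alone wells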
[10] = reduction of Shn3 3'UTR-driven luciferase in osteoblasts – cell-based, Clone20 osteoblasts, firefly luciferase, cherry-picked, dose response (AID 624132); type: functional;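 also: firefly luciferase luminescence from reporter carrying the Shn3 3'UTR in osteoblasts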
[11] = loss of viability in HepG2 cells – cell-based, CellTiter-Glo, cherry-picked, cytotoxicity control for Shn3 inhibitor project, dose response (AID 624134); type: functional
[12] = molecular target: Alkaline phosphatase, placental type (Homo sapiens, UniProt P05187); assay: human placental alkaline phosphatase inhibition – biochemical, luminescence, confirmation (AID 1512); type: functional
Sequence of Alkaline phosphatase, placental type (P05187 whole entry): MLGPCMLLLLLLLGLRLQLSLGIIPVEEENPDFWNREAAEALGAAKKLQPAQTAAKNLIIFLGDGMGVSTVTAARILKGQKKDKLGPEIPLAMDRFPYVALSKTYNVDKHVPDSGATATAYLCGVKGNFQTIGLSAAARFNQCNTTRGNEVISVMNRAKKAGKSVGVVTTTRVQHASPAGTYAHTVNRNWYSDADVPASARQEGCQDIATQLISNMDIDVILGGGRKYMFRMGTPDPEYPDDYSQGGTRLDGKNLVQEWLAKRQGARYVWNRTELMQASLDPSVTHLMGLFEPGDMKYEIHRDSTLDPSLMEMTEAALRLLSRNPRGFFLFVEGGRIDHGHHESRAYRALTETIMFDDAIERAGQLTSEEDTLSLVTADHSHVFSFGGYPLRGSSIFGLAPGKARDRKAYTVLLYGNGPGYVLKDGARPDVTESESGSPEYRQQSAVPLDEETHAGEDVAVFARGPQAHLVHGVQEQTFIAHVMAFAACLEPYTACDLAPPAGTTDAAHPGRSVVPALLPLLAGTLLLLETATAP

[13] = molecular target: T4, Alkaline phosphatase, tissue-nonspecific isozyme (Homo sapiens, UniProt P05186); assay: potency against alkaline phosphatase TNAP – biochemical, luminescent, dose response, SAR follow-up (AID 1056)
T4 sequence (P05186 whole entry): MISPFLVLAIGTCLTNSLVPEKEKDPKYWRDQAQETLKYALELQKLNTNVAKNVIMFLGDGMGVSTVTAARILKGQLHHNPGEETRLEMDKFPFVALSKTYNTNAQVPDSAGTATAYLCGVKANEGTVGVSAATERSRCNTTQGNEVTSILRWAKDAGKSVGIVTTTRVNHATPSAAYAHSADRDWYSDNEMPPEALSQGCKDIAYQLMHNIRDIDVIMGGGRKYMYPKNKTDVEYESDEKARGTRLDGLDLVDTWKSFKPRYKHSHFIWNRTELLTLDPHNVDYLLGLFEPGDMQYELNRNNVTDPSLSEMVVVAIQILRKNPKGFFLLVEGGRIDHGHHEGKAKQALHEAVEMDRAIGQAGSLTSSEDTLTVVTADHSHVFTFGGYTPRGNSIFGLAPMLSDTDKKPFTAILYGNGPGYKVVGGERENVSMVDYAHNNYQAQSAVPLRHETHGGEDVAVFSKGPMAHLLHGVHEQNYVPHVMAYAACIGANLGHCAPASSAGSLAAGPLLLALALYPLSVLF

[14] = molecular target: T5, Polyadenylate-binding protein 1 (Homo sapiens, UniProt P11940); assay: MLLE binding blockers, Cy5 peptide tracer – biochemical, fluorescence polarization, Cy5-PAM2 peptide, secondary, miRNA deadenylation inhibitor project, dose response (AID 602260); type: functional; settings: read-out: IC50_Mean
T5 sequence (P11940 whole entry, the tested form may be a part): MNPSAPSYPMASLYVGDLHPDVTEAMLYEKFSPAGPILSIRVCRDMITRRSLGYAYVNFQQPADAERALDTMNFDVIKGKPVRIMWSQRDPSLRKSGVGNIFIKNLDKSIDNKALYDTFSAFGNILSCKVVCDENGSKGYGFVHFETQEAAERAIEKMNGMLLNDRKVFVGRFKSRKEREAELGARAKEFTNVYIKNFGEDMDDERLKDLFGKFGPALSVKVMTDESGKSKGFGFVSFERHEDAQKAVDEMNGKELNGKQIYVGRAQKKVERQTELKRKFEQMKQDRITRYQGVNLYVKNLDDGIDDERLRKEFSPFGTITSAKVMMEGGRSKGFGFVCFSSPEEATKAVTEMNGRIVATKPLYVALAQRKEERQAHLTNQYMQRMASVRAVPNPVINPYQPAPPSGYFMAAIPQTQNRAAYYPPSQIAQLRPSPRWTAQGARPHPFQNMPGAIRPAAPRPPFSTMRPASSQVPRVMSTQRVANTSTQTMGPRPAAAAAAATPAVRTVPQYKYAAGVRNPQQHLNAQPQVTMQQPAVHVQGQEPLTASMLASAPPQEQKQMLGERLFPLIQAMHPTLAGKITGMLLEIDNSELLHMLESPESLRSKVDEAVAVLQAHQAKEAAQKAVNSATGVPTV

[15] = molecular target: T5, Polyadenylate-binding protein 1; assay: MLLE domain peptide-binding blockers, IC50 – biochemical, fluorescence polarization, FITC-PAM2 peptide, dose response (AID 602259); type: functional; settings: read-out: IC50_Mean
[16] = HEK-293T cell viability reduction – luminescence, B-cell screen hits, cytotoxicity control for BCR NF-kB inhibitor project, dose response (AID 489021); type: functional, cell-based;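 also: HEK-293T cells carrying an NF-kB luciferase reporter; cells exposed to compound for about 14 hours before viability readout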
Vero = assay: cells; type: functional, cell-based; settings: Chlorocebus sabaeus

COCCN(C(S)=Nc1c(C)cc(C)cc1C)C(C)c1cccnc1 (stereo not given)
AC50 (Escherichia coli): 57.7 µM (active)

COc1cc(NC(=O)CSc2ncnc3scc(-c4ccccc4)c23)c(C(=O)O)cc1OC
IC50 (Leucine aminopeptidase): < 1 µM (active)
IC50 (Aminopeptidase N): 40.1 µM (active)

CC(C)(C)n1nnnc1CN(Cc1ccc(F)cc1)Cc1ccco1
EC50 [1]: 6.27 µM (active)

O=C(CCCSc1nc2ccccc2[nH]1)NCc1ccccc1Cl
EC50 [2]: 3.76 µM (active)

CN1CCN(c2nc3c(c(=O)n(C)c(=O)n3C)n2CC(=O)C23CC4CC(CC(C4)C2)C3)CC1
EC50 [2]: 2.11 µM (active)

COc1ccc(NS(=O)(=O)c2ccc(-c3cnc(C4CC4)o3)cc2)cc1OC
EC50 (HEK293 [3]): 2.04 µM (active)
IC50 (HEK293 [4]): 6.05 µM (active)
IC50 (HEK293 [5]): 18.4 µM (active)
EC50 [6]: 14.4 µM (active)
IC50 (HEK293 [7]): 6.25 µM (active)
IC50 (HEK293 [8]): > 20 µM (inactive)
IC50 [9]: > 80 µM (inactive)
AC50 (INS1): 3.52 µM (active)
AC50 [10]: 1.33 µM (active)
AC50 [11]: 2.32 µM (active)

O=C(COC(=O)CCc1ccc(S(=O)(=O)N2CCCCC2)cc1)Nc1ccc2c(c1)OCO2
EC50 [1]: 26.4 µM (active)

CN1CCN(Cc2nc3ccccc3c(=O)n2Cc2nc(-c3cccc([N+](=O)[O-])c3)cs2)CC1
IC50 (Aminopeptidase N): 79.7 µM (active)

O=C(CSc1nc2ccccc2o1)c1ccc(O)c(O)c1
IC50 [12]: 3.06 µM (active)
IC50 [13]: 4.15 µM (active)

CCOC(=O)C1(c2ccccc2)CCN(CC(=O)Nc2ccc(C)cc2)CC1
EC50 [2]: 2.99 µM (active)

Cc1cccc(-c2nc(C[S+]([O-])CC(=O)NCCCSC3CCCCC3)c(C)o2)c1 (stereo not given)
EC50 [1]: 3.94 µM (active)

O=C(NC1CCN(C(=O)NCc2ccccc2)CC1)c1ccco1
IC50 (Aminopeptidase N): 93.2 µM (active)

COc1ccc(S(=O)(=O)N2CCN(c3ccc(C)cc3C)CC2)cc1OC
EC50 [1]: 9.63 µM (active)

Cc1cc2cc(CNC(=O)c3ccc(Br)o3)ccc2[nH]1
EC50 [1]: 10.1 µM (active)
IC50 [14]: 45.1 µM (inactive)
IC50 [15]: 49.6 µM (inactive)

CC(C)(C)n1nnnc1C(c1cc2cc3c(cc2nc1O)OCCO3)N1CCSCC1 (stereo not given)
AC50 (Escherichia coli): 28.6 µM (active)

O=C(Cn1cnc2ccccc21)c1ccc(O)c(O)c1
IC50 [13]: 14 µM (active)

NS(=O)(=O)c1ccc(NC(=O)CSc2nnc(-c3ccc(O)cc3)o2)cc1
AC50 (Escherichia coli): 127 µM (active)

COc1cc(/C(C)=N\NC(N)=S)cc(OC)c1OC
IC50 [16]: > 80 µM (inactive)

COc1ccc(-c2nnc(SCC(=O)c3ccc(O)c(O)c3)n2-c2ccccc2)cc1
IC50 [12]: 7.22 µM (active)
IC50 [13]: > 100 µM (inactive)

Cc1ccc2c(Cl)cc(Cl)c(O)c2n1 [CHLORQUINALDOL]
IC50 (Vero): > 25 µM (active)
AC50 (Escherichia coli): 54.3 µM (active)
